# From patent publication US8618074B2, “GPCR enhanced neuroprotection to treat brain injury” (Board of Regents of the University of Texas System, priority 2007, dated 2013)
# How the values were obtained:
# [1] = tested on: Rose Bengal (RB)-induced cerebral infarcts in mouse cortex; test: RB-induced photothrombosis lesion size in parietal cortex of GFAP-GFP transgenic mice (confocal); assay type: in vivo; conditions: 24 and 48 hours post-ischemia; with versus without MRS2365
# From the text: A precise clot in a blood vessel is induced using the photosensitive dye Rose Bengal (RB) in the mouse cortex. The blood vessels were simultaneously imaged by injecting the red fluorescent dye […] into the mouse circulation. The targeted blood vessel is illuminated by a 543-nm laser after tail vein injection of RB. RB is activated by the laser and interacts with molecular oxygen to form singlet oxygen, which is known to damage endothelial cells within the blood vessel, thereby triggering the natural clotting cascade and leading to formation of a clot. Pharmacological agents can be introduced at the time of photoactivation which also causes the breakdown of the blood-brain barrier.
# The parietal cortex of GFAP-GFP transgenic mice was imaged using confocal microscopy and a 40×NA 0.8 or 10×NA 0.45 objective. The same region of the cortex was periodically imaged prior to RB injection, and 10, 20, 30, and 40 minutes post-RB injection. RB is impermeable to the BBB and is cleared quickly under physiological conditions.
# The parietal cortex of GFAP-GFP transgenic mice was imaged using confocal microscopy and a 10×0.45 NA objective. […] The size of the lesion was calculated in Image J by tracing the region of the cortex that was void of GFP expressing astrocytes. […]
# [2] = tested on: HEK293 cells that were overexpressing type 1 muscarinic acetylcholine receptors (mAchR1s); test: Cell death induced by t-BuOOH or ceramide with IP3-gated Ca2+ release stimulation; assay type: cell-based, human; conditions: ACh 1 μM; t-BuOOH (100 μM, 3 hrs) or ceramide (40 μM, 12 hrs)
# From the text: P2 purinoceptors are a class of cell surface receptors, subdivided into either the ligand-gated ionotropic receptors (P2X) or G-protein-coupled metabotropic receptors (P2Y)). We focused our work on the P2Y-Rs due to their strong coupling to Gq/11 signaling pathway in astrocytes. Activation of P2Y-receptors stimulates PLCB isoenzymes, increasing inositol triphosphate (IP3) formation and subsequent Ca^2+ mobilization from thapsigargin sensitive stores in the endoplasmic reticulum (ER). Thapsigargin is a specific inhibitor of the sarco-endoplasmic reticulum Ca^2+ ATPases (SERCAs). As mentioned above, IP3-mediated Ca^2+ release is efficiently sequestered by mitochondria, due to its physically close proximity the Ca^2+ channel pore. Increased mitochondrial Ca^2+ uptake via the Ca^2+ uniporter rapidly stimulates Ca^2+ sensitive dehydrogenases and subsequently, increases respiration and ATP production. […] Another important point to make with regard to mitochondrial Ca^2+ signaling is that high matrix Ca^2+ is generally thought to sensitize cells to cell death stimuli. During prolonged periods or with sufficiently high concentrations, matrix Ca^2+ induces opening of the mitochondrial permeability transition pore (MPT). Recent work has identified the mitochondrial targeted cyclophilin D as a key player in Ca^2+ stimulated cell death. […]
# astrocytes [3] = test: Time until mitochondrial membrane potential (ΔΨ, TMRE) collapse during t-BuOOH oxidative stress; assay type: cell-based, mouse; conditions: for average time until ΔΨ collapse: XeC 25 μM pretreatment + ATP 10 μM, then t-BuOOH 100 μM; for time until ΔΨ collapse: then t-BuOOH
# Protocol: Primary cultures of astrocytes were prepared as previously published (Lin et al., 2005). C57BL/6 male mice were purchased from the National Institute of Aging and maintained in standard accredited housing conditions at the University of Texas Health Science Center Animal Facility. Animal protocols were approved by our Institutional Animal Care Use Committee. Astrocytes were cultured in DMEM F-12 media (Invitrogen, # 11039-021) supplemented with 2 mM glutamine, nonessential amino acids, 10% fetal calf serum, 100 U/ml penicillin/streptomycin (Cambrex BioScience Walkersville, #17-602E) and 1% fungizone (Invitrogen, #15290-018) at 37° C. in an atmosphere containing 5% CO2. The culture medium was changed every 3-5 days. Confluent cells were gently removed by a trypsin EDTA solution and re-plated on 35 mm glass bottom chambers (Bioptechs #04200415C) prior to imaging experiments 3-4 days later. Cells were maintained in plastic culture flasks until the final re-seeding of cells onto a glass bottom chamber and were passed up to 3 times for astrocyte only experiments. For co-culture experiments with neurons, primary astrocytes were plated directly onto corning transwell-clear permeable supports, which physically separates the two cell-types by ˜1 mm (# 07-200-170, Fisher scientific). Astrocytes were cultured in transwells until they were ˜70% confluent. Mouse cortical neurons (Cambrex Bio Science Walkersville Inc., # M-CX-300) were then cultured onto 6 well mat-tek glass bottom plates and maintained in Neurobasal Medium (Invitrogen, # 21103-049), 2 mM L-Glutamine (Cambrex BioScience Walkersville, #17-605E), 100 U/ml penicillin/streptomycin (Cambrex BioScience Walkersville, #17-602E) and B-27 with (Invitrogen, #17504-044) and without antioxidants (Invitrogen, #10889-038), which controls glia contamination to less than 0.5%. The transwell supports with cultured astrocytes were placed in the neuron seeded glass bottom chambers for four days before imaging and both cell types were then maintained in neuronal media. For neuron only experiments, the astrocytes on the transwell supports were removed prior to treatments and imaging.
# (§1) Mitochondrial membrane potentials (ΔΨs) was measured as previously described using the potential sensitive dye tetra-methyl rhodamine ethyl ester (TMRE, Molecular Probes, #T-669) (Lin and Lechleiter, 2002). Images were acquired with a 60× oil 1.4 NA objective on a Nikon PCM2000 confocal microscope custom adapted for two-photon imaging. A Ti-sapphire Coherent Mira 900 Laser pumped with a 5W Verdi laser (Coherent Inc., Santa Clara, Calif.) was used to excite TMRE at 800 nm A neutral-density filter wheel was used to attenuate the laser intensity so that no detectable photobleaching of TMRE was observed.
# To investigate this, primary cultures of astrocytes were prepared from the brains of young (4-6 months) and old (26-28 months) mice and re-plated on glass coverslips prior to each imaging experiment as previously described. Seeded glass coverslips were then sealed in an open chamber (Bioptechs Delta T) and perfused at 37° C. with the potential sensitive dye tetramethyl rhodamine ethyl ester (TMRE, 200 nM, Molecular Probes/Invitrogen) to label astrocyte mitochondria. Mitochondrial membrane potentials (ΔΨs) were measured every 5 minutes using two-photon microscopy. Each image is a maximum intensity projection of a z-stack of six optical sections (1-μm steps). Scale bar is 10 μm. Plated cells were continuously perfused at 37° C. with culture medium containing TMRE (200 nM) and imaged with 2-photon microscopy (800 nm). Oxidative stress was applied to the cells in the perfusate with t-BuOOH (100 μM). Cell viability was then monitored by the collapse of ΔΨ (TMRE fluorescence) to 10% of its initial value. The time course of ΔΨ collapse is plotted for 3 astrocytes (A1, A2, A3) in each culture (FIGS. 1B and 2B). Fluorescent units are scaled to 100% at 0 hours. […]
# astrocytes [4] = test: Mitochondrial membrane potential ΔΨ estimated as log(Fmito/Fcyto) with TMRE; assay type: cell-based, mouse
# Protocol: as §1
# We confirmed this by directly measuring the effect of ATP, ATP plus XeC and IP3-BM treatments on ΔΨ. Cultured cells were labeled with TMRE (200 nM) and imaged with a two-photon microscope as described above. ΔΨ was estimated as the log (Fmito/Fcyto) where Fmito is the peak fluorescent intensity observed in single mitochondria (Farkas et al., 1989; Lin et al., 2005). The mean values of individual mitochondria from a single cell were used for the mitochondrial potential estimate. Fcyto represents the lowest value of TMRE fluorescence observed within the boundaries of the same cell. […] FIG. 5E depicts a histogram plot showing average mitochondrial membrane potentials before and after treatment. The mean resting ΔΨs for untreated (Buffer), ATP-treated, ATP plus XeC-treated and IP3-BM-treated were 1.84+0.01 (n=78 mitochondria, pooled from 2 experiments), 1.84+0.01 (n=85 mitochondria), 1.85+0.01 (n=80 mitochondria) and 1.86+0.01 (n=48 mitochondria), respectively. Astrocyte cultures were then exposed to their respective treatments and the same fields of mitochondria were imaged 10 minutes later.
# astrocytes [5] = test: Fura-2 two-photon imaging of intracellular Ca2+ response; assay type: cell-based, mouse; conditions: for Ca2+ response: then IP3-BM
# Protocol: Ca^2+ activity was imaged as previously described (Camacho and Lechleiter, 1995). In brief, cultured astrocytes were incubated with the fura-2 am (Molecular Probes, #F-1221) 30 min prior to the experiment. Images were acquired with two-photon excitation (800 nm) at the rate of 1.5 images/ sec. […] Images were analyzed with Image J and ANALYZE® software (the Mayo Foundation, Rochester, MN). The D-enantiomer of the 1P3-BM ester was synthesized by Stuart Conway in the Cambridge University Chemical Laboratory by using a modification of the protocol of Tsien and co-workers (Li et al., 1997).
# The primary response of glial cells to extracellular ATP is an increase in intracellular Ca^2+. To investigate whether the protective effect of ATP could be initiated by a Ca^2+ response, we loaded cultures of astrocytes with the Ca^2+ indicator dye Fura-2 AM (10 μM for 30 minutes). Fura-2 fluorescence was imaged with 2-photon microscopy using 800 nm excitation. At this wavelength, fluorescence is primarily due to the Ca^2+ free form of fura-2. […] When young astrocyte cultures were exposed to extracellular ATP (10 μM for 10 minutes), the peak intracellular Ca^2+ (−ΔF/F) was increased to 0.46±0.02 (n=25, pooled from 2 experiments). […] We tested whether the ATP-induced Ca^2+ response could be attributed to the metabotropic pathway, since IP3 mediated Ca^2+ release can stimulate mitochondrial energy production as well as sensitize mitochondria to apoptotic stimuli. Astrocytes cultured from old mice were pretreated with Xestospongin C (XeC, 25 μM for 30 minutes), which is a competitive inhibitor of IP3 binding to the IP3R. […] This is consistent with other reports showing that activation of the ionotropic P2X receptor activation also increases Ca^2+ in cultured astrocytes. To determine whether the metabotropic pathway was involved with the protective effect of extracellular ATP, we subsequently exposed the XeC/ATP treated astrocytes to oxidative stress. As described above, the perfusate contained t-BuOOH (100 μM) and TMRE (200 nM) to monitor ΔΨ. Under these experimental conditions, the average time until ΔΨ collapse was reduced to 5.48±0.22 (n=23, pooled from 2 experiments) in young astrocytes (FIG. 1C) and to 4.02±0.18 h (n=19, pooled from 2 experiments) in old astrocytes (FIG. 2C). […] We concluded that the protective effect of ATP on astrocytes was mediated by P2Y-receptors (P2Y-Rs).
structure (smiles),measurement,setting,value
"CSc1nc(N)c2ncn([C@H]3[C@H](O)[C@H](O)[C@]4(COP(=O)(O)OP(=O)(O)O)C[C@H]34)c2n1 [MRS2365, N-methanocarba-2MeSADP]",size of the lesion (cortex void of GFP expressing astrocytes),[1],greatly reduces the size of the lesion
CC(=O)OCC[N+](C)(C)C [ACh],cell death,[2],significantly higher
"C1CCC[C@H]2CCCN3CC[C@@H](CCCCCC[C@@H]4CCCN5CC[C@@H](CC1)O[C@@H]45)O[C@@H]23 [XeC, Xestospongin C]",average time until ΔΨ collapse,astrocytes [3]; old astrocytes,4.02 ± 0.18 h
same,time until ΔΨ collapse,"astrocytes [3]; old astrocytes, XeC pretreatment + IP3-BM",4.48±0.07
same,average time until ΔΨ collapse,astrocytes [3]; young astrocytes,5.48 ± 0.22 h
same,time until ΔΨ collapse,"astrocytes [3]; young astrocytes, XeC pretreatment + IP3-BM",4.73±0.05
same,ΔΨ (log Fmito/Fcyto) after treatment,astrocytes [4]; pretreated with XeC and then exposed to ATP,1.87±0.01
same,peak Ca2+ response,"astrocytes [5]; old astrocytes, XeC 25 μM 30 min pretreatment, then ATP 10 μM",0.28±0.04
same,Ca2+ response,"astrocytes [5]; old astrocytes, XeC 25 μM 30 min pretreatment",0.13±0.01
same,Ca2+ response,"astrocytes [5]; young astrocytes, XeC 25 μM 30 min pretreatment",0.11±0.01
"CCCC(=O)OCOP(=O)(OCOC(=O)CCC)O[C@@H]1[C@H](O)[C@H](O)[C@@H](OP(=O)(OCOC(=O)CCC)OCOC(=O)CCC)[C@H](OP(=O)(OCOC(=O)CCC)OCOC(=O)CCC)[C@H]1O [IP3-BM, butyryloxymethyl ester of IP3]",time until ΔΨ collapse,"astrocytes [3]; old astrocytes, IP3-BM 25 μM fifteen minutes",6.32±0.35
same,time until ΔΨ collapse,"astrocytes [3]; young astrocytes, IP3-BM 25 μM fifteen minutes",6.82±0.32
same,ΔΨ (log Fmito/Fcyto) after treatment,astrocytes [4]; treating astrocytes for 10 minutes,2.02±0.01
same,peak Ca2+ response,"astrocytes [5]; old astrocytes, IP3-BM 25 μM",0.24±0.02
same,peak Ca2+ response,"astrocytes [5]; young astrocytes, IP3-BM 25 μM",0.34±0.02
